From US20100047221A1, “COMPOSITIONS COMPRISING PYRUVATE ALKYL ESTERS AND USES THEREOF” (priority 2006, published 2010) come the findings set out here.

A short description of series [1]: Stability in solution at room temperature, judged by appearance and taste. The class given is physicochemical. The note with it: room temperature (about 50 to 90 degrees F.); judged by appearance (color) and taste. The source says:
Without wishing to be bound by theory, it is believed that methyl esters of pyruvic acid are more susceptible to hydrolysis in aqueous solution than are corresponding ethyl esters, which hydrolysis results in the production of pyruvic acid. Pyruvic acid, and the anion thereof, can then react by mechanisms well known in the art, to form a plethora of higher molecular compounds.

Series [2] in a line: Gastric reflux (heartburn) in the taste assessment experiment. Format: in vivo, human. The note with it: panel of 10 individuals; about 30 ml liquid composition, oral. Here is the method: (§1) A panel of 10 individuals ingested a liquid composition (about 30 ml) at room temperature comprising ethylpyruvate (about 1 weight-percent) to provide a taste assessment. The panel was additionally provided a corresponding liquid composition of methylpyruvate (i.e., methyl ester of pyruvic acid) for comparative tasting. […] Without wishing to be bound by theory, it is believed that the sour taste associated with methylpyruvate results from hydrolysis of methylpyruvate within the sample to pyruvic acid, with the associated source taste of an acid. In contrast, the taste associated with ethylpyruvate appears to reflect a lack of hydrolysis to pyruvic acid in the sample.
In the taste assessment experiment (Example 2), gastric reflux (i.e., “heartburn”) was a considerable problem (i.e., 5 of 10 individuals reporting such) with methylpyruvate, but none reporting similar reaction with ethylpyruvate.

Series [3] in a line: Post-surgical oral ingestion by a patient with gastrointestinal inflammation. Format: in vivo, human. To be noted: about 3x500 mL per day. Here is the method: The patient had developed gastrointestinal inflammation and could not tolerate food by mouth for several days post-operative. Furthermore, bowel movements were frequent, watery and bloody, and were accompanied by lower abdominal pain. The patient self administered oral ethylpyruvate (about 3×500 mL per day daily for 1 week of an ethylpyruvate solution in commercial bottled spring water at 0.06 weight-percent ethylpyruvate). Within 3 hours of the initial dosing, persistent pain, hyperactive bowel and diarrhea resolved. The patient additionally reported an improved mood following oral ingestion of ethylpyruvate.

Series [4] can be described thus: Mood enhancement before and after ingestion in the taste assessment experiment. Format: in vivo, human. To be noted: about 1 weight-percent. Here is the method:
as §1
In the taste assessment experiment (Example 2), mood was assessed before and after ingestion of the liquid composition comprising ethylpyruvate. […] This mood enhancement commenced at between 5 and 15 minutes and lasted over 6 hours. In one case, the individual stated that the usual afternoon cup of coffee would not be necessary that day due to the ingestion of the composition.

Series [5] in a line: Athlete oral ingestion before and during daily workouts. Format: in vivo, human. The note with it: 12 athletes, 4x500 mL per day, about 0.06 weight-percent in water, four days. As to the method:
A group of 12 athletes (19-22 years of age) self-administered oral ethylpyruvate in solution (4×500 mL ingested per day of a solution of about 0.06 weight-percent ethylpyruvate in water) before and during daily workouts (approximately 2 hours duration) for four days. The athletes having ingested oral ethylpyruvate reported less fatigue at the end of each workout, and similar favorable reports continued each day for the four days of practice.

In the case of `CCOC(=O)C(C)=O` [ethylpyruvate], the “stability in solution versus the methyl ester of pyruvic acid” value in series [1] is “higher stability”. For the same compound, the “individuals reporting gastric reflux (heartburn)” value in series [2] is given as “none”. In addition, the “time from initial dosing to resolution of persistent pain, hyperactive bowel and diarrhea” value in series [3] (one patient after surgery and radiation for gastrointestinal carcinoma, 0.06 weight-percent in spring water) was at most 3 h. The “mood reported by the patient” value in series [3] (one patient, 0.06 weight-percent, 1 week) was “improved mood”. Further, the “duration of mood enhancement” value in series [4] (after ingestion of about 30 ml) is on record as “over 6 hours”. The mood after ingestion result in series [4] (each of 10 individuals, about 30 ml, oral) was “increase in feelings of well-being and energy”. Also, the “performance in high-activity training regimens (wind sprints) versus sessions prior to ingestion” value in series [5] (each subject) is given as “better performance”. In series [5], the “fatigue at the end of each workout” value is given as “less fatigue”.
